Assay results from ChEMBL document CHEMBL4732174, “Discovery of 6-(7-Nitro-2,1,3-benzoxadiazol-4-ylthio)hexanol Derivatives as Glutathione Transferase Inhibitors with Favorable Selectivity and Tolerated Toxicity” (J Med Chem, 2021).

Legend:
[1] = Toxicity in BALB/c nude mouse xenografted with human 143B cells assessed as spleen edema at 5 to 20 mg/kg, po administered once daily for 28 consecutive days by hematoxylin-eosin staining based assay; format: organism-based; conditions: in vivo, 672 h, dose 5-20 mg/kg, time 28 day
[2] = Toxicity in BALB/c nude mouse xenografted with human 143B cells assessed as cellular inflammation in spleen at 5 to 20 mg/kg, po administered once daily for 28 consecutive days by hematoxylin-eosin staining based assay; format: organism-based; conditions: in vivo, 672 h, dose 5-20 mg/kg, time 28 day
[3] = Toxicity in BALB/c nude mouse xenografted with human 143B cells assessed as necrosis in liver at 5 to 20 mg/kg, po administered once daily for 28 consecutive days by hematoxylin-eosin staining based assay; format: organism-based; conditions: in vivo, 672 h, dose 5-20 mg/kg, time 28 day
143B [4] = experiment: Antitumor activity against human 143B cells xenografted in BALB/c nude mouse assessed as tumor growth inhibition at 5 mg/kg, po administered once daily for 28 consecutive days relative to control; format: functional; conditions: 672 h, time 28 day, read-out: TGI
[5] = Toxicity in BALB/c nude mouse xenografted with human 143B cells assessed as necrosis in spleen at 5 to 20 mg/kg, po administered once daily for 28 consecutive days by hematoxylin-eosin staining based assay; format: organism-based; conditions: in vivo, 672 h, dose 5-20 mg/kg, time 28 day
[6] = MRT (0 to infinity) in Sprague-Dawley rat at 80 mg/kg, po administered as single dose measured upto 48 hrs by LC-MS/MS analysis; conditions: in vivo
[7] = Antiproliferative activity against […] B16 cells assessed as inhibition of cell proliferation incubated for 72 hrs by MTT assay; format: functional, cell-based; conditions: B16, 72 h
liver carboxylesterase = target: T1, liver carboxylesterase (Sus scrofa, UniProt Q29550); experiment: Stability of the compound assessed as pig liver carboxylesterase-mediated compound hydrolysis at 10 mM measured after 24 hrs by HPLC analysis; format: ADME; conditions: read-out: Drug degradation
T1 sequence (Q29550 whole entry): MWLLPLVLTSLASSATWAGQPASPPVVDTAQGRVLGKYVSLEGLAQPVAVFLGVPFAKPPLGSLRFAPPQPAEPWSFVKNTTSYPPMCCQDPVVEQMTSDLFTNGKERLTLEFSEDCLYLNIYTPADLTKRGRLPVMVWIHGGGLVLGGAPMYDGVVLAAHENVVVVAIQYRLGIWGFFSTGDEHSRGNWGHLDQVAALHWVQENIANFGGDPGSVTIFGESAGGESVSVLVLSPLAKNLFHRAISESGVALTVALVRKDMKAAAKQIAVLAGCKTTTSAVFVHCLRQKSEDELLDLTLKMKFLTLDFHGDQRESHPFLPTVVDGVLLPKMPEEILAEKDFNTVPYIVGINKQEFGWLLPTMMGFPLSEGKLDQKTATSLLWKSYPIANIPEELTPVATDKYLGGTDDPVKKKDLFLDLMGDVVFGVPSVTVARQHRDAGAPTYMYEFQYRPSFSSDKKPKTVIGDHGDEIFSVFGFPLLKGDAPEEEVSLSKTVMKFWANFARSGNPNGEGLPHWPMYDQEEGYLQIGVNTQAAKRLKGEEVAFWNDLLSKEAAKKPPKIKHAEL

[8] = Toxicity in BALB/c nude mouse xenografted with human 143B cells assessed as cellular inflammation in liver at 5 to 20 mg/kg, po administered once daily for 28 consecutive days by hematoxylin-eosin staining based assay; format: organism-based; conditions: in vivo, 672 h, dose 5-20 mg/kg, time 28 day
143B [9] = experiment: Induction of apoptosis in human 143B cells assessed as apoptotic cells at 10 uM incubated for 24 hrs by Annexin V-FITC/PI double staining based flow cytometric analysis (reference value: 3.9%); format: functional
A549 = experiment: Antiproliferative activity against human A549 cells assessed as inhibition of cell proliferation incubated for 72 hrs by MTT assay; format: functional, cell-based; conditions: A549, 72 h
143B [10] = experiment: Induction of apoptosis in human 143B cells assessed as apoptotic cells at 2.5 uM incubated for 24 hrs by Annexin V-FITC/PI double staining based flow cytometric analysis (reference value: 3.9%); format: functional
143B [11] = experiment: Induction of cell cycle arrest in human 143B cells assessed as accumulation at G2 phase at 10 uM incubated for 48 hrs by propidium iodide staining based flow cytometry (reference value: 1.35 %); format: functional
[12] = Toxicity in BALB/c nude mouse xenografted with human 143B cells assessed as cellular inflammation in lung at 5 to 20 mg/kg, po administered once daily for 28 consecutive days by hematoxylin-eosin staining based assay; format: organism-based; conditions: in vivo, 672 h, dose 5-20 mg/kg, time 28 day
L02 = experiment: Cytotoxicity against human L02 cells assessed as reduction in cell viability incubated for 72 hrs by MTT assay; format: cell-based; conditions: L02, 72 h
[13] = target: T2, Glutathione S-transferase P (Homo sapiens, UniProt P09211); experiment: Inhibition of GSTP1-1 (unknown origin) using reduced GSH and CDNB as substrate incubated for 10 mins followed by substrate addition by microplate reader analysis
Target sequence in this assay (P09211 whole entry): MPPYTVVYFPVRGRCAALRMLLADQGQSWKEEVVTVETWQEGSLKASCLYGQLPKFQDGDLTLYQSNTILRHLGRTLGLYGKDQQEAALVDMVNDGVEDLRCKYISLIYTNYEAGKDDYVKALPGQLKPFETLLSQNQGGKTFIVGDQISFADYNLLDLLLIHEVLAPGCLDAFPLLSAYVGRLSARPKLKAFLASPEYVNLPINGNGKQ

[14] = target: T2, Glutathione S-transferase P; conditions: dose 0.1-5 µM
Target sequence in this assay (P09211 2-210 limits assumed): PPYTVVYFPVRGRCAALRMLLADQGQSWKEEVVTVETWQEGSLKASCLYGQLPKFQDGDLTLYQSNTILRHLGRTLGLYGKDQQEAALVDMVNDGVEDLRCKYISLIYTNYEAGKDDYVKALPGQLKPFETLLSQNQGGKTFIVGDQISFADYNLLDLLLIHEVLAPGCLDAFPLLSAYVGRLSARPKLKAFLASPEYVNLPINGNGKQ

in vivo [15] = conditions: Sprague-Dawley, rat, po, 80 mg/kg
Description: Tmax in Sprague-Dawley rat at 80 mg/kg, po administered as single dose measured upto 48 hrs by LC-MS/MS analysis

143B [16] = experiment: Induction of cell cycle arrest in human 143B cells assessed as accumulation at G1 phase at 10 uM incubated for 48 hrs by propidium iodide staining based flow cytometry (reference value: 66.62 %); format: functional
[17] = Toxicity in BALB/c nude mouse xenografted with human 143B cells assessed as cellular inflammation in heart at 5 to 20 mg/kg, po administered once daily for 28 consecutive days by hematoxylin-eosin staining based assay; format: organism-based; conditions: in vivo, 672 h, dose 5-20 mg/kg, time 28 day
[18] = Toxicity in BALB/c nude mouse xenografted with human 143B cells assessed as necrosis in lung at 5 to 20 mg/kg, po administered once daily for 28 consecutive days by hematoxylin-eosin staining based assay; format: organism-based; conditions: in vivo, 672 h, dose 5-20 mg/kg, time 28 day
143B [19] = experiment: Induction of cell cycle arrest in human 143B cells assessed as accumulation at G2 phase at 2.5 uM incubated for 48 hrs by propidium iodide staining based flow cytometry (reference value: 1.35 %); format: functional
143B [20] = experiment: Induction of cell cycle arrest in human 143B cells assessed as accumulation at S phase at 5 uM incubated for 48 hrs by propidium iodide staining based flow cytometry (reference value: 32.03 %); format: functional
143B [21] = experiment: Induction of cell cycle arrest in human 143B cells assessed as accumulation at S phase at 10 uM incubated for 48 hrs by propidium iodide staining based flow cytometry (reference value: 32.03 %); format: functional
[22] = rat, in vivo, po, 80 mg/kg, 48 h
Description: Plasma clearance in Sprague-Dawley rat at 80 mg/kg, po administered as single dose measured upto 48 hrs by LC-MS/MS analysis

HOS = experiment: Antiproliferative activity against human HOS cells assessed as inhibition of cell proliferation incubated for 72 hrs by MTT assay; format: functional, cell-based
[23] = rat, in vivo, po, 80 mg/kg, 48 h; remark: listed apart in the source
Description: AUC (0 to infinity) in Sprague-Dawley rat at 80 mg/kg, po administered as single dose measured upto 48 hrs by LC-MS/MS analysis

in vivo [24] = conditions: Sprague-Dawley, rat, po, 80 mg/kg; remark: listed apart in the source
Description: Cmax in Sprague-Dawley rat at 80 mg/kg, po administered as single dose measured upto 48 hrs by LC-MS/MS analysis

[25] = target: T2, Glutathione S-transferase P; experiment: Time dependent inhibition of GSTP1-1 (unknown origin) assessed as inhibition constant using reduced GSH and CDNB as substrate by spectrophotometric method
Target sequence in this assay (P09211 whole entry): as the sequence (P09211 whole entry) above

[26] = Toxicity in BALB/c nude mouse xenografted with human 143B cells assessed as body weight loss at 20 mg/kg, po administered once daily for 28 consecutive days and measured every 3 days; format: organism-based; conditions: in vivo, 672 h, time 28 day

**Q.** Which Activity [1] does the source give for `CN(C)CCCNC(=O)CCC(=O)OCCCCCCSc1ccc([N+](=O)[O-])c2nonc12` here?
**A.** Non-Toxic

**Q.** What about the Activity [2] of the same compound?
**A.** Non-Toxic

**Q.** What about the Activity [3] of the same compound?
**A.** Non-Toxic

**Q.** What about the inhibition in vivo at 5 mg/kg (143B [4]) of the same compound?
**A.** 46.4%

**Q.** What about the Activity [5] of the same compound?
**A.** Non-Toxic

**Q.** What about the MRT inf at 48 h [6] of the same compound?
**A.** 6.54 h

**Q.** What about the IC50 [7] of the same compound?
**A.** 950 nM

**Q.** And the metabolised at 24 h, 10000 µM (liver carboxylesterase)?
**A.** 45%

**Q.** What about the Activity [8] of the same compound?
**A.** Non-Toxic

**Q.** What about the Activity (143B [9]) of the same compound?
**A.** 84%

**Q.** And the IC50 (A549)?
**A.** 1580 nM

**Q.** And the Activity (143B [10])?
**A.** 46.5%

**Q.** And the Activity (143B [11])?
**A.** 21.01%

**Q.** What about the Activity [12] of the same compound?
**A.** Non-Toxic

**Q.** And the IC50 (L02)?
**A.** 4230 nM

**Q.** What about the IC50 [13] of the same compound?
**A.** 160 nM

**Q.** What about the Kinact [14] of the same compound?
**A.** 0.17 min⁻¹

**Q.** And the Tmax at 48 h (in vivo [15])?
**A.** 2.33 h

**Q.** And the Activity (143B [16])?
**A.** 48.67%

**Q.** What about the Activity [17] of the same compound?
**A.** Non-Toxic

**Q.** And the Activity [18]?
**A.** Non-Toxic

**Q.** What about the Activity (143B [19]) of the same compound?
**A.** 9.46%

**Q.** And the Activity (143B [20])?
**A.** 34.94%

**Q.** What about the Activity (143B [21]) of the same compound?
**A.** 30.32%

**Q.** And the CL [22]?
**A.** 64.2 mL/min/kg

**Q.** And the IC50 (HOS)?
**A.** 1850 nM

**Q.** And the AUC [23]?
**A.** 6514.48 ng·h/mL

**Q.** What about the Cmax at 48 h (in vivo [24]) of the same compound?
**A.** 1810 ng/mL

**Q.** And the Ki [25]?
**A.** 170 nM

**Q.** And the Activity [26]?
**A.** Non-Toxic
